These results are taken from US9181223B2, “2-aminopyrimidin-6-ones and analogs exhibiting anti-cancer and anti-proliferative activities” (Deciphera Pharmaceuticals, LLC, priority 2013, dated 2015).

Where two headings read alike, the source gives them in different places.

Assay [1] has as its target T1, unphosphorylated c-KIT kinase (uKIT, Seq. ID no. 2) (Homo sapiens, UniProt P10721).
T1 construct: uKit with N-terminal GST fusion used for screening
The experiment in a line: uKit kinase assay (ADP production coupled to pyruvate kinase/lactate dehydrogenase). Type of assay: biochemical. As for the experimental part:
In this assay, the oxidation of NADH (thus the decrease at A340 nm) was continuously monitored spectrophometrically. […] The inhibition reaction was started by mixing serial diluted test compound with the above reaction mixture. The absorption at 340 nm was monitored continuously for 4 hours at 30° C. on Synergy 2 plate reader (BioTech).

Another assay concerns PC-3 M-luc cells. The experiment in a line: PC-3 peritibial implant model of cancer bone metastasis. Type of assay: in vivo, mouse. As to conditions: oral dose of 30 mg/kg twice daily for 39 days; scale 0-4; vehicle-treated animals 4. From the text:
PC-3 Peritibial Implant Model of Cancer Bone Metastasis To evaluate in vivo anti-cancer activity of compounds of formula I, the PC-3 M-luc peritibial injection model of bone invasiveness model was employed. Briefly, PC-3 M-luc cells were obtained from Xenogen Corporation (Caliper Life Sciences) and expanded using MEM media modified with L-Glutamine (Cell Gro® #10-045-CV) supplemented with 10% fetal bovine serum, 1% penicillin-streptomycin-glutamine, 1% non-essential amino acids, and 1% MEM vitamins in 5% CO2 atmosphere at 37° C. Six to 7 week old male nude mice (Crl:NU-Foxnlnu) were obtained from Charles River Laboratories. Test mice were implanted peritibially on Day 0 with 1×10^6 cells/mouse (0.1 ml) using an insulin syringe with a fixed 28-gauge needle. The needle was inserted at the ankle between the tibia and fibula until the bevel of the needle reached approximately half way between the knee and ankle. Treatments began on Day 0. Animals were dosed by oral gavage twice daily for the study duration. All procedures carried out in this experiment were conducted in compliance with all the laws, regulations and guidelines of the National Institutes of Health (NIH). […]

The test system of the next assay is osteoclast precursors. The experiment in a line: Osteoclast tartrate-resistant acid phosphatase assay. It counts as cell-based. Conditions: tartrate-resistant acid phosphatase activity, RANKL and M-CSF, 7-14 days. The method, then: Osteoclast Tartrate-Resistant Acid Phosphatase Assay
A serial dilution of test compound was dispensed into a 384-well black clear bottom plate (Nalge Nunc International, Rochester, N.Y.). Compound was diluted by the addition of DMEM media supplemented with 10% characterized fetal bovine serum (Invitrogen, Carlsbad, Calif.). Diluted compound was transferred to a 384-well black clear bottom plate. Two-thousand five hundred osteoclast precursors (Lonza, Walkersville, Md.) were added per well in growth media containing Receptor Activator of Nuclear Factor Kappa-beta ligand (RANKL) and M-CSF (R&D Systems, Minneapolis, Minn.). Plates were incubated for 7-14 days at 37 degrees Celsius, 5% CO2, and 95% humidity to allow differentiation of osteoclast precursors. At the end of the incubation period, 10 μL of supernatant from each well was transferred to a clear 384-well plate. Tartrate-resistant acid phosphatase activity in the supernatant samples was determined using an acid phosphatase assay kit (Sigma, St. Louis, Mo.). Absorbance was measured at 550 nm using a plate reader. Data was analyzed using Prism software (Graphpad, San Diego, Calif.) to calculate IC50 values.

Assay [2] addresses T2, unphosphorylated PDGFRβ kinase (uPDGFRβ, Seq. ID No. 3) (Homo sapiens, UniProt P09619).
T2 construct: purchased DeCode
In words: uPDGFRβ kinase assay (ADP production coupled to pyruvate kinase/lactate dehydrogenase). Type of assay: biochemical. As to conditions: enzymatic assay, ATP 500 μM. As for the experimental part: Unphosphorylated […]β) Kinase (Seq. ID No. 3) Assay Activity of unphosphorylated PDGFRβ kinase ([…] No. 3) was determined by following the production of ADP from the kinase reaction with ATP and poly E4Y as substrates through coupling with the pyruvate kinase/lactate dehydrogenase system (e.g., Schindler et al. Science (2000) 289: 1938-1942). In this assay, the oxidation of NADH (thus the decrease at A340 nm) was continuously monitored spectrophometrically. The reaction mixture (100 μL) contained PDGFRβ (DeCode, 15.7 nM), polyE4Y (2.5 mg/mL), MgCl2 (10 mM), pyruvate kinase (4 units), lactate dehydrogenase (0.7 units), phosphoenol pyruvate (1 mM) and NADH (0.28 mM) and ATP (500 μM) in a 90 mM Tris buffer containing 0.2% octyl-glucoside and 1% DMSO, at pH 7.5. The inhibition reaction was started by mixing serial diluted test compound with the above reaction mixture. The absorption at 340 nm was monitored continuously for 4 h at 30° C. on a Polarstar Optima or Synergy 2 plate reader. The reaction rate was calculated using the 1.5 to 2.5 h time frame. Percent inhibition was obtained by comparison of reaction rate with that of a control (i.e. with no test compound). IC50 values were calculated from a series of percent inhibition values determined at a range of inhibitor concentrations using software routines as implemented in the GraphPad Prism software package.

Assay [3] addresses T3, phospho-FMS in THP-1 cells (Homo sapiens, UniProt P07333).
T3 construct: endogenous in cells; host or cells: THP-1 (ATCC TIB-202)
The experiment in a line: Phospho-FMS ELISA assay in THP-1 cells. It counts as cell-based. Conditions: 4 hours compound, M-CSF stimulation 5 minutes, read-out: pFMS inhibition in THP-1 cells. The method, then:
Cells were allowed to expand until reaching 70-95% confluency at which point they were subcultured or harvested for assay use.
In a separate 96 well black clear bottom plate, one hundred and fifty thousand THP-1 cells were added per well in 100 μL in assay medium. Fifty microliters of diluted compound was then added to the cells. Plates were incubated for 4 hours at 37 degrees Celsius, 5% CO2, 95% humidity. […] Lysates were prepared and used to perform the phospho-FMS ELISA as described by the manufacturer (catalog #DYC3268, R & D Systems, Minneapolis, Minn.). GraphPad Prism was used to calculate IC50 values obtained from data generated from the ELISA assay.

Assay [4] addresses T4, unphosphorylated c-FMS kinase (uFMS, Seq. ID no. 1) (Homo sapiens, UniProt P07333).
T4 construct: purchased Millipore
T4 sequence (P07333 538-972): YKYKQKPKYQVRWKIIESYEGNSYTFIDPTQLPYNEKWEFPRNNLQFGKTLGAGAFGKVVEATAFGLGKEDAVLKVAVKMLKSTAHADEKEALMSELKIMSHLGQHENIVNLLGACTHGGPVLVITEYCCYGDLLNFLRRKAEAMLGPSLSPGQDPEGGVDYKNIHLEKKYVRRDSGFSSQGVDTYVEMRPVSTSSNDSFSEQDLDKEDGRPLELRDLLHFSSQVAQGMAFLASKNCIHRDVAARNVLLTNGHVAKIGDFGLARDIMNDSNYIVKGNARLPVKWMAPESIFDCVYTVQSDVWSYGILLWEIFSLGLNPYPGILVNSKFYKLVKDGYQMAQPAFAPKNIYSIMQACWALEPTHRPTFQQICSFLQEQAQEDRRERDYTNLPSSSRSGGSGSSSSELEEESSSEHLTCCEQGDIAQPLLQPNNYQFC
In words: uFMS kinase assay (ADP production coupled to pyruvate kinase/lactate dehydrogenase). It counts as biochemical. As to conditions: enzymatic assay, ATP 500 μM. The method, then:
uFMS Kinase (Seq. ID No. 1) Assay
In this assay, the oxidation of NADH (thus the decrease at A340 nm) was continuously monitored spectrophometrically. The reaction mixture (100 μL) contained FMS (purchased from Millipore) (10 nM), polyE4Y (1 mg/mL), MgCl2 (10 mM), pyruvate kinase (4 units), lactate dehydrogenase (0.7 units), phosphoenol pyruvate (1 mM), NADH (0.28 mM) and ATP (500 μM) in 90 mM Tris buffer containing 0.2% octyl-glucoside and 1% DMSO, pH 7.5. The inhibition reaction was started by mixing serial diluted test compound with the above reaction mixture. The absorption at 340 nm was monitored continuously for 4 hours at 30° C. on Synergy 2 plate reader. The reaction rate was calculated using the 3 to 4 h time frame. Percent inhibition was obtained by comparison of reaction rate with that of a control (i.e. in the absence of test compound). IC50 values were calculated from a series of percent inhibition values determined at a range of inhibitor concentrations using software routines as implemented in the GraphPad Prism software package.

Another assay concerns M-NFS-60 cells. The experiment in a line: M-NFS-60 cell proliferation assay (resazurin). It counts as cell-based. Conditions: 67 h incubation. As for the experimental part:
M-NFS-60 cells (catalog #CRL-1838) were obtained from the American Type Culture Collection (ATCC, Manassas, Va.). Briefly, cells were grown in suspension in RPMI 1640 medium supplemented with 10% characterized fetal bovine serum (Invitrogen, Carlsbad, Calif.), 0.05 mM 2-mercaptoethanol, and 20 ng/mL mouse recombinant macrophage colony stimulating factor (M-CSF) at 37° C., 5% CO2, and 95% humidity. Cells were allowed to expand until reaching saturation at which point they were subcultured or harvested for assay use.
M-NFS-60 Cell Proliferation Assay
A serial dilution of test compound was dispensed into a 384-well black clear bottom plate (Corning, Corning, N.Y.). Two thousand five hundred cells were added per well in 50 μL complete growth medium. Plates were incubated for 67 h at 37° C., 5% CO2, and 95% humidity. At the end of the incubation period 10 μL of a 440 µM solution of resazurin (Sigma, St. Louis, Mo.) in PBS was added to each well and incubated for an additional 5 h at 37° C., 5% CO2, and 95% humidity. Plates were read on a Synergy2 reader (Biotek, Winooski, Vt.) using an excitation of 540 nm and an emission of 600 nm. IC50 values were calculated from a series of percent inhibition values determined at a range of inhibitor concentrations using software routines as implemented in the GraphPad Prism software package.
For orientation: Alamar Blue is a resazurin reagent that responds to reducing activity.

T2 sequence (P09619 557-1106): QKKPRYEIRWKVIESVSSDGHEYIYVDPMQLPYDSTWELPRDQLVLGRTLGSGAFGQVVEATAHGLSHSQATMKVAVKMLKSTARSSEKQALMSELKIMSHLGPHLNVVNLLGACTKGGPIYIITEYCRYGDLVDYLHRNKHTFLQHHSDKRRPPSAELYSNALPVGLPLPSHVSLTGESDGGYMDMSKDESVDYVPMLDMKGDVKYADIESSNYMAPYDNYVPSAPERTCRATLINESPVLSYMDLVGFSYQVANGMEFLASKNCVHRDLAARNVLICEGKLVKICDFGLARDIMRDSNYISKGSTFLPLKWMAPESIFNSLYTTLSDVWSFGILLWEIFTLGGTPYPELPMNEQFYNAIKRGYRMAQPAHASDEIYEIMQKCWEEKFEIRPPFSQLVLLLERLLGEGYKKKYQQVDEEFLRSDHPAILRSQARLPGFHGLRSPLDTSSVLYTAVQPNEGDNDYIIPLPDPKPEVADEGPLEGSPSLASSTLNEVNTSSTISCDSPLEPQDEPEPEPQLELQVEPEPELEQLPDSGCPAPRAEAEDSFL
T1 sequence (P10721 with tags, fused parts or gaps): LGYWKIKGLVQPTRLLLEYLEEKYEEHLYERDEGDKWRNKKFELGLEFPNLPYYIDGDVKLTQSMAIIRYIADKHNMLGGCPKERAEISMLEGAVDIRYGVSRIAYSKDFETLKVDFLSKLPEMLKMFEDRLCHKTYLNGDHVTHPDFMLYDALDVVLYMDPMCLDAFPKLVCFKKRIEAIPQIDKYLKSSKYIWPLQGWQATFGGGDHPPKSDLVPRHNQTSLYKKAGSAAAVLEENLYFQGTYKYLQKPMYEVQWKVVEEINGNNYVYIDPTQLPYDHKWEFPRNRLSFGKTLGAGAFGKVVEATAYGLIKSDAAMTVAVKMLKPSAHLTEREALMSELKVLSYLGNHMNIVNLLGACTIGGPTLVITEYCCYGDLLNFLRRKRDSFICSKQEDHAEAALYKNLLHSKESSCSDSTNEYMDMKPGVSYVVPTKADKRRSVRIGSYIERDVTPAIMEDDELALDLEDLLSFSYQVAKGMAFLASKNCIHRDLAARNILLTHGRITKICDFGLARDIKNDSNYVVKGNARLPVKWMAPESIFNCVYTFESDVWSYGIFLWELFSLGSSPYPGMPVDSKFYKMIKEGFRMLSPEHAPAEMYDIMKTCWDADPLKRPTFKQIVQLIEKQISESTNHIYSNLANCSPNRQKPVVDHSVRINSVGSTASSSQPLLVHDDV
T3 sequence (P07333 20-972): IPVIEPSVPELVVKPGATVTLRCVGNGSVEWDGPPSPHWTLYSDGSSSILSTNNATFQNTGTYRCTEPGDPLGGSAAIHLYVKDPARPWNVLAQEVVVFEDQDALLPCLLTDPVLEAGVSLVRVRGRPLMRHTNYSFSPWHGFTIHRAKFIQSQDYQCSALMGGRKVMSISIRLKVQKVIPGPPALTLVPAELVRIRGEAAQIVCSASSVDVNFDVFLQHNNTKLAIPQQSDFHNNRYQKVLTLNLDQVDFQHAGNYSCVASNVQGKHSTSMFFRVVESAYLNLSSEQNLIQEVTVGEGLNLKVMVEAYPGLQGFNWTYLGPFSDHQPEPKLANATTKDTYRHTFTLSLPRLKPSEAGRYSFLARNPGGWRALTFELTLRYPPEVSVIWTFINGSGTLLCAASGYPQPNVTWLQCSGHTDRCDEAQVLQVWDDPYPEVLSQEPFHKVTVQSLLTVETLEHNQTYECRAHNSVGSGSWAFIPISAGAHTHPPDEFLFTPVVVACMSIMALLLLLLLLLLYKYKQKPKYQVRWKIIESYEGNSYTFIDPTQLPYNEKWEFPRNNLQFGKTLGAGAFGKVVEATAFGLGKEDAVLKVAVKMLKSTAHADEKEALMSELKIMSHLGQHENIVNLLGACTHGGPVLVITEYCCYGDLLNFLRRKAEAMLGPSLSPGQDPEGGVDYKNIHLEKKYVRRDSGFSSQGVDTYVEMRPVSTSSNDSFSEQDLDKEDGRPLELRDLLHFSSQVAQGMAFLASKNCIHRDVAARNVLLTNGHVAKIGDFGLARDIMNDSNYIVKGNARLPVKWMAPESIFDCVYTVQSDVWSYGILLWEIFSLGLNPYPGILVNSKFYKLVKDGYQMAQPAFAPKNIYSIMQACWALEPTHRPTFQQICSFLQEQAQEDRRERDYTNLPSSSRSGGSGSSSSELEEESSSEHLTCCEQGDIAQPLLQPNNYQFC

Turning to `Cc1nc(-c2cnc(NC(C)C)n(C)c2=O)ccc1Oc1ccnc(-c2cnn(C)c2)c1` [Example 10, 2-(isopropylamino)-3-methyl-5-(6-methyl-5-((2-(1-methyl-1H-pyrazol-4-yl)pyridin-4-yl)oxy)pyridin-2-yl)pyrimidin-4(3H)-one], the values for the IC50 (in assay [1]; with osteoclast precursors; in assay [2]) were 100 to 1000 nM, less than 10 nM and greater than 1000 nM, respectively. The lesion score with PC-3 M-luc cells came to 2.
As to `Cc1nc(-c2cnc(N3CCC(F)(F)C3)[nH]c2=O)ccc1Oc1ccnc(-c2cnn(C)c2)c1` [Example 30, 2-(3,3-difluoropyrrolidin-1-yl)-5-(6-methyl-5-((2-(1-methyl-1H-pyrazol-4-yl)pyridin-4-yl)oxy)pyridin-2-yl)pyrimidin-4(3H)-one], the IC50 in assay [1] (enzymatic assay, ATP 2000 μM, read-out: uKIT) was greater than 1000 nM; in assay [3] it was 10 to 100 nM; with osteoclast precursors, 10 to 100 nM; in assay [4] it was 10 to 100 nM; with M-NFS-60 cells, 100 to 1000 nM; in assay [2], greater than 1000 nM.
